According to patent US20180228858A1, “A PLANT EXTRACT AND COMPOUNDS FOR USE IN WOUND HEALING” (priority 2014, published 2018):

Key:
[1] = biological target: T1, human CYP11B1 (Homo sapiens, UniProt P15538); test: CYP11B1 assay in V79MZh11B1 cells expressing recombinant human CYP11B1; assay type: cell-based; conditions: mean ± SD of 2 independent experiments; for inhibition at 1 µM: V79MZh11B1, 1 μM; for inhibition at 10 µM: V79MZh11B1, 10 μM; for inhibition at 100 µM: V79MZh11B1, 100 μM; for % CYP11B1 Inhibition: 10 μM
T1 construct: expressed in transfected cells; host or cells: V79MZh11B1 cell line (V79 hamster fibroblasts by own knowledge)
T1 sequence (P15538 25-503): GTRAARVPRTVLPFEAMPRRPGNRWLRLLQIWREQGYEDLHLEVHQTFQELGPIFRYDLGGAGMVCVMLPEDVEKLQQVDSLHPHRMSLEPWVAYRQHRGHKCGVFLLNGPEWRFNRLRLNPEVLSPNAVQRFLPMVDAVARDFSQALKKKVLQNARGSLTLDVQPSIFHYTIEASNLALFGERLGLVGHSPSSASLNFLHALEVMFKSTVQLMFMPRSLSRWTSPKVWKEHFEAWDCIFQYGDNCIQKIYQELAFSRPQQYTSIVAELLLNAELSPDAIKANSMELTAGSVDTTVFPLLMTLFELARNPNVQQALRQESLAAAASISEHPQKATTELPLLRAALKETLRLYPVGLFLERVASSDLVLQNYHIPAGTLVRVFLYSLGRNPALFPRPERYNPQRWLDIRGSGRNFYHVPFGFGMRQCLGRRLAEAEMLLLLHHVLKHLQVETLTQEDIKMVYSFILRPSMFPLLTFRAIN
Protocol: Applicant dissolved ˜10 mg of the Salvia m. Bunge extract (as disclosed in WO2009050451) in the required volume of 100% ethanol or 100% DMSO to obtain a 1% (w/v) extract solution. They tested 5 μL of this solution in a 500 μL assay incubation volume (final ethanol or DMSO conc. of 1%). From this 1% Salvia m. Bunge extract solution, they also prepared a 1:10 and 1:100 dilution in 100% ethanol or 100% DMSO. From these solutions, they tested 5 μL in a 500 μL assay incubation volume.
The V79MZh11B1 cell line, expressing recombinant human CYP11B1, was cultured in Dulbecco's modified Eagle (DME, Sigma) medium supplemented with 5% fetal calf serum (FCS; Sigma), penicillin G (100 U/ml), streptomycin (100 μg/ml), glutamine (2 mM) and sodium pyruvate (1 mM) at 37° C. in 5% CO2 in air. Cells were placed on 24-well cell culture plates (8×10^5 cells per well) and cultured in 1 ml DME medium per well until confluence. On the day of testing, DME medium was removed and 450 μl of fresh DMEM, containing 5 μl of the extract solution in 100% ethanol or 100% DMSO, was added to each well. There was no significant difference in CYP11B1 inhibition between DMSO or ethanol as solvent. Control wells (receiving vehicle or ketoconazole (final concentration of 50 nM) as reference compound to validate each experiment) were treated in the same way without extract solution. After 60 min at 37° C. in the CO2 incubator, the reaction was started by the addition of 50 μl of DMEM containing 100 nM of 11-deoxycorticosterone (plus 0.15 μCi of [1,2-^3H] 11-deoxycorticosterone) as substrate. All measurements were in duplicate. After 25 min, the enzyme reaction was stopped by extracting the supernatant with ethyl acetate. Samples were centrifuged (10,000×g, 10 min), and the upper phase was pipetted into fresh cups. The ethylacetate solvent was evaporated and the residue was dissolved in 40 μl of methanol and analyzed by HPLC. The following formulas were used to determine the level of conversion and percentage of enzyme inhibition.
Given the activity of the extract the Applicant looked at the activity of some of the tanshinones using the methodology described in Example 1.

[2] = tested on: V79MZh11B1 cells; test: MTT cellular viability assay; assay type: cell-based
Protocol: In order to check that the inhibition was not due to toxicity, a MTT [3-(4,5-dimethylthiazol-2-yl)-2,5-diphenyl-tetrazolium bromide] cellular viability assay was performed in the same cell line under the incubation conditions used in the CYP11B1 screening assay as set out in Example 2 below:
V79MZh11B1 cells were cultured on 24-well cell culture plates (8×10^5 cells per well) in 1 ml DME medium until confluence. On the day of testing, DME medium was removed and 450 μl of fresh DME medium with 5% FCS, containing 5 μl of the Salvia m. Bunge extract solution in 100% ethanol, was added to each well. Ethanol (1%) and Triton® X-100 (0.0006%) were used as vehicle and positive control (all final concentrations), respectively. All measurements were in quadruplicate. After 60 min at 37° C. in a 5% CO2, 50 μl of fresh DME medium (+5% FCS) was added to each well. After 25 min, medium was replaced by 500 μl fresh DME medium (+5% FCS) to which 25 μl of MTT solution (5 mg per ml PBS, pH 7.2) was added immediately. After 30 min, all medium was removed and the cells were lysed in 250 μl of 0.5% acetic acid (v/v), 10% SDS (w/v) in DMSO. Absorbance of formazan was measured spectrophotometrically at 570 nm wavelength

Molecule | inhibition at 1 µM [1] | inhibition at 10 µM [1] | inhibition at 100 µM [1] | % CYP11B1 Inhibition [1] | Cell viability (MTT conversion into formazan, 1% ethanol = 100%) ([2]; Experiment 1, final conc. 0.0006%) | Cell viability (MTT conversion into formazan, 1% ethanol = 100%) ([2]; Experiment 2, final conc. 0.0006%) | effect on formazan formation ([2]; positive control, 0.0006%)
C[C@H]1COC2=C1C(=O)C(=O)c1c2ccc2c1CCCC2(C)C [Cryptotanshinone] | 6.4 ± 1.6% | 15.4 ± 10.3% | 59.9 ± 22% |  |  |  | 
Cc1cccc2c3c(ccc12)C1=C(C(=O)C3=O)[C@@H](C)CO1 [Dihydrotanshinone, 15,16-dihydrotanshinone I] | 43.3 ± 14.7% | 94% | 100% | 93.6 ± 9.1% |  |  | 
Cc1coc2c1C(=O)C(=O)c1c-2ccc2c1CCCC2(C)C [Tanshinone IIA] | 5.9 ± 0.2% | 16.1 ± 13.5% | 29.4 ± 0.4% |  |  |  | 
Cc1coc2c1C(=O)C(=O)c1c-2ccc2c(C)cccc12 [Tanshinone I] | 19.1 ± 7.9% | 64% | 81.1 ± 6.9% | 63.7 ± 4.5% |  |  | 
Triton X-100 |  |  |  |  | 3 ± 1% | 3 ± 1% | almost fully block formazan formation
